The text below walks through data of patent US7429670B2 (The Trustees of Columbia University in the City of New York, priority 2003, dated 2008).

By % inhibition is commonly meant the change of the read-out against control, counted positive when it falls.

One assay has as its target T1, human homomeric α1 GlyR (Homo sapiens, UniProt P23415).
T1 construct: expressed in transfected cells
T1 sequence (P23415 29-457): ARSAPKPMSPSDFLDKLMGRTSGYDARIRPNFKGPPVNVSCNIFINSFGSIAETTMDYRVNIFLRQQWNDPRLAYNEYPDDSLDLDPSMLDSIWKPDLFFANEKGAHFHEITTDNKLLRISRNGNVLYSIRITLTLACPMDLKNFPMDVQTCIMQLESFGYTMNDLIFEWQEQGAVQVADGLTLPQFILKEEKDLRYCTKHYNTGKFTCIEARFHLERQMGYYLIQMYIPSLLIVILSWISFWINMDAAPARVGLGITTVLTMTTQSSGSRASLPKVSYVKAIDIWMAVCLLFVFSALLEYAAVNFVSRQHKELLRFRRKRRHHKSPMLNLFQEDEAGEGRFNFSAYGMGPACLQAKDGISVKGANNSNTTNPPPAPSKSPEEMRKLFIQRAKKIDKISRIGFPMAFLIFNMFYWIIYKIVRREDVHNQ
Put plainly: Functional glycine receptor assay (FLIPR Membrane Potential Assay). It is filed as cell-based. Set-up: antagonist activity at GlyR (in words): dose or concentration left out as unconfirmed. Particulars: 30 uM concentration of test compound.
Regarding “10-Benzyloxy-isoGC-6-benzoate [Compound 17]”, the “inhibition of glycine responses” value amounted to 39%.

The same assay, now with this note: 100 μM test compound; 100 μM glycine-induced response; α1 GlyR-HEK293 cells; Table 2.
For the substance “1-(Morpholine-4-carbonyloxy)-10-(4-methoxy-benzyloxy)-GC [Compound 51]”, the “% inhibition” value is “NI (Inhibition below 20% is characterized as no inhibition (NI))”. “1-(Morpholine-4-carbonyloxy)-10-benzyloxy-GC [Compound 41]”: the “% inhibition” value was “NI (Inhibition below 20% is characterized as no inhibition (NI))”.

In the case of “1-(Piperidine-carbonyloxy)-10-(4-methoxy-benzyloxy)-GC [Compound 52]”, the “% inhibition” value is recorded as “NI (Inhibition below 20% is characterized as no inhibition (NI))”.

With “1-(Piperidine-carbonyloxy)-10-benzyloxy-GC [Compound 42]”, the “% inhibition” value is recorded as 31%. Consider “1-Methylcarbamoyloxy-10-(4-methoxy-benzyloxy)-GC [Compound 49]”, for which the “% inhibition” value is “NI (Inhibition below 20% is characterized as no inhibition (NI))”. Regarding “1-Methylcarbamoyloxy-10-benzyloxy-GC [Compound 39]”, the “% inhibition” value is listed as “NI (Inhibition below 20% is characterized as no inhibition (NI))”.

Regarding “1-tert-Butylcarbamoyloxy-10-(4-methoxy-benzyloxy)-GC [Compound 50]”, the “% inhibition” value stood at 33%.

On to “1-tert-Butylcarbamoyloxy-10-benzyloxy-GC [Compound 40]”, for which the “% inhibition” value is listed as 42%. Regarding “7-(Morpholine-4-carbonyloxy)-10-(4-methoxy-benzyloxy)-GC [Compound 46]”, the “% inhibition” value is “NI (Inhibition below 20% is characterized as no inhibition (NI))”. Still for that read-out and setting: under “7-(Morpholine-4-carbonyloxy)-10-benzyloxy-GC [Compound 36]” stands “NI (Inhibition below 20% is characterized as no inhibition (NI))”. Take “7-(Piperidine-carbonyloxy)-10-(4-methoxy-benzyloxy)-GC [Compound 47]”: the “% inhibition” value turned out to be 29%. Consider “7-(Piperidine-carbonyloxy)-10-benzyloxy-GC [Compound 37]”, for which the “% inhibition” value is given as “NI (Inhibition below 20% is characterized as no inhibition (NI))”. As for “7-Methylcarbamoyloxy-10-(4-methoxy-benzyloxy)-GC [Compound 44]”, the “% inhibition” value was “NI (Inhibition below 20% is characterized as no inhibition (NI))”. Consider “7-Methylcarbamoyloxy-10-benzyloxy-GC [Compound 34]”, for which the “% inhibition” value is listed as “NI (Inhibition below 20% is characterized as no inhibition (NI))”.

In the case of “7-tert-Butylcarbamoyloxy-10-(4-methoxy-benzyloxy)-GC [Compound 45]”, the “% inhibition” value turned out to be 39%.

With “7-tert-Butylcarbamoyloxy-10-benzyloxy-GC [Compound 35]”, the “% inhibition” value is reported as 29%.

The same assay, now with this note: 100 μM test compound; 100 μM glycine-induced response; α1 GlyR-HEK293 cells; Table 3.
“1-(Morpholine-4-carbonyloxy)-GC [Compound 59]”: the “% inhibition” value was “NI (Inhibition below 20% is characterized as no inhibition (NI))”. Still for that read-out and setting: under “1-(Piperidine-carbonyloxy)-GC [Compound 60]” stands 33%; under 1-Methylcarbamoyloxy-GC [Compound 57], 76%. On the same count and under the same terms, under “1-tert-Butylcarbamoyloxy-GC [Compound 58]” stands 71%; under “7-(Morpholine-4-carbonyloxy)-GC [Compound 55]”, 44%.

Take “7-(Piperidine-carbonyloxy)-GC [Compound 56]”: the “% inhibition” value is 34%.

Turning to 7-Methylcarbamoyloxy-GC [Compound 53], the “% inhibition” value is listed as “NI (Inhibition below 20% is characterized as no inhibition (NI))”. Take “7-tert-Butylcarbamoyloxy-GC [Compound 54]”: the “% inhibition” value is “NI (Inhibition below 20% is characterized as no inhibition (NI))”.

Staying with this assay, now noted: 100 μM test compound; 100 μM glycine-induced response; α1 GlyR-HEK293 cells; Table 4.
Consider “10-(2-Pyridinyl-methoxy)-GC [Compound 25]”, for which the “% inhibition” value was determined as 75%. Same read-out and setting: under “10-(2-Pyridinyl-methoxy)-GC-7-benzoate [Compound 29]” stands 51%; under “10-(4-Methoxy-benzyloxy)-GC [Compound 24]”, 52%. Turning to “10-(4-Methoxy-benzyloxy)-GC-1-benzoate [Compound 28]”, the “% inhibition” value is “NI (Inhibition below 20% is characterized as no inhibition (NI))”.

With “10-(4-Methoxy-benzyloxy)-GC-7-benzoate [Compound 26]”, the “% inhibition” value is 35%. On to 10-Benzyloxy-GC [Compound 16], for which the “% inhibition” value is given as 59%.

Consider “10-Benzyloxy-GC-1-benzoate [Compound 23]”, for which the “% inhibition” value was 60%. Turning to “10-Benzyloxy-GC-7-benzoate [Compound 21]”, the “% inhibition” value stood at 45%.

Turning to GC-1-benzoate [Compound 32], the “% inhibition” value was “NI (Inhibition below 20% is characterized as no inhibition (NI))”.

With GC-7-benzoate [Compound 30], the “% inhibition” value was “NI (Inhibition below 20% is characterized as no inhibition (NI))”.

The same assay, now with this note: 100 μM test compound; response induced by 100 μM glycine; α1 GlyR-HEK293 cells; Table 5.
As to “10-(4-Methoxy-benzyloxy)-isoGC-1,6-bisacetate [Compound 20]”, the “% inhibition” value stood at 36%.

Turning to “10-(4-Methoxy-benzyloxy)-isoGC-6-benzoate [Compound 27]”, the “% inhibition” value worked out at 49%.

With “10-Benzyloxy-isoGC-1,6-bisacetate [Compound 19]”, the “% inhibition” value turned out to be 21%. On the same count and under the same terms, for “10-Benzyloxy-isoGC-1,6-bisbenzoate [Compound 22]” the value was 42%; for “10-Benzyloxy-isoGC-6-benzoate [Compound 17]”, 90%. Regarding IsoGC-6-benzoate [Compound 31], the “% inhibition” value was 63%.

Still in this assay, the particulars now being: derivatives as printed.
GC-1-benzoate [Compound 32]: the “antagonist activity at GlyR (in words)” value was “complete loss in activity”. Still for that read-out and setting: for GC-7-benzoate [Compound 30] the value was “complete loss in activity”.

The same assay, now with this note: derivatives at a concentration of 100 mM; 100 mM glycine.
Take 1-Methylcarbamoyloxy-GC [Compound 57]: the “inhibition of the glycine responses” value is reported as “ca. 70%”.

Take “1-tert-Butylcarbamoyloxy-GC [Compound 58]”: the “inhibition of the glycine responses” value was “ca. 70%”.

For “10-(2-Pyridinyl-methoxy)-GC [Compound 25]”, the “inhibition of the glycine responses” value is given as 75%. The same measure, in the same setting: under “10-Benzyloxy-isoGC-6-benzoate [Compound 17]” stands 90%.
